From patent US20080234188A1, “Antimicrobial Peptides” (The Hospital for Sick Children, priority 2001, published 2008)
≈ marks a conversion by molar mass, not a printed value. Where a SMILES comes first, the peptide text is derived from it.

Tests used:
[1] = test system: Staphylococcus epidermidis (C621); format: cell-based; details: for MIC C621 (active/inactive): Table 2, class symbols
From the text: (§1) The bacterial strains used were E. coli C498, E. coli C500, Escherichia coli UB1005 and its antibiotic supersusceptible derivative DC2 (22); a clinical isolate of Staphylococcus epidermidis (C621); coryneform bacterial strain Corynebacterium xerosis (C875); and E. coli ATCC 25922, Staphylococcus aureus ATCC 25923, Enterococcus faecalis ATCC 29212, Bacillus subtilis ATCC 6633 and Pseudomonas aeruginosa ATCC 27853, all from American Type Culture Collection.
(§2) Peptide antibacterial activity was assessed by the method of R. Hancock et al. (Wu & Hancock (1999), J. Biol. Chem., v. 274, pp. 29-35). Test strains of bacteria from Mueller Hinton agar (MHA) plates were inoculated into 5 ml Mueller Hinton Broth (MHB) in tubes and grown overnight at 37° C. on a shaker (180 rpm). Serial dilutions of test peptides (at 10 times the required test concentrations) were made in 0.01% acetic acid, 0.2% BSA, in polypropylene or coated glass tubes as follows: the test peptide was (a) dissolved in distilled water at 20 times the required maximum concentration (enough final volume for all tests to be performed on a given day); (b) diluted into an equal volume of 0.02% acetic acid, 0.4% BSA to give 10 times the required maximum concentration; (c) serial doubling dilutions were performed in 0.01% acetic acid, 0.2% BSA to provide serial dilutions of peptides at 10 times the required test concentrations, e.g., 640, 320, 160, . . . 2.5 μg/ml. (No deleterious effects of long-term storage of peptides in these media have been detected). Overnight bacterial cultures were diluted in MHB to give 2−7×10^5 colony forming units/ml. Bacterial suspension (100 μl) was dispensed in each well; controls without bacteria were maintained in parallel. To each well was added 11 μl of 10× test peptide and plates were incubated at 37° C. for 18-24 hours, and checked again at 40-48 hours. Plates were read visually and at 600 nm in a microplate reader (Molecular Devices).
(§3) were synthesized. The antibacterial activity of these peptides was determined against both Gram-positive bacteria ([…], Corynebacterium xerosis) and Gram-negative bacteria (various strains of E. coli). The results are shown in Table 2, along with the average hydrophobicity of each peptide, calculated as described herein.
(§4) A further number of the peptides of the invention were tested for antimicrobial activity against a range of Gram-positive and Gram-negative bacteria by the assay described immediately before Example 1.

[2] = test system: Corynebacterium xerosis (C875); format: cell-based; details: for MIC C875 (active/inactive): Table 2, class symbols
From the text: as §1, §2, §3, §4

[3] = test system: E. coli DC2; test: Assay of antibacterial activity (MIC), E. coli DC2; format: cell-based, Escherichia coli; details: Table 3; Gram-negative
From the text: as §1, §2, §4

[4] = Hydrophobicity (hydropathy) from reverse-phase HPLC retention scale; format: physicochemical; set-up: key to Average Hydrophobicity of Core Sequence / Mean Core segment Hydrophobicity: arithmetic average of Table 1 hydropathy values of constituent residues; key to Hydropathy: hydropathy scale from HPLC retention times of model peptides (Table 1); details: for Mean residue hydropathy of X-residue peptide / Hydropathy: Table 1; for Hydropathy: of the X-residue, from HPLC retention of KKAAAXAAAAAXAAWAAXAAAKKKK-amide peptides; for Average Hydrophobicity of Core Sequence: Table 2, calculated from Table 1 hydropathy values; for Mean Core segment Hydrophobicity: Table 3
From the text: The “hydrophobicity value” of an amino acid residue means the hydrophobicity value of that residue as shown in Table 1 or as calculated by the method described herein.
The “hydrophobicity value” of an amino acid sequence or peptide means the arithmetic average of the individual hydrophobicity values of the constituent amino acid residues of the sequence.
Various hydrophobicity scales for proteins and amino acids have been described in the literature but the inventors have established the hydrophobicity scale of Table 1 based on the retention times on HPLC of a series of hydrophobic model peptides, as described in Liu and Deber (1998), Biopolymers (Peptide Science), v. 47, pp. 41-62).
The hydrophobicity value shown for each amino acid in Table 1 as “hydropathy” may be used as the hydrophobicity value for that amino acid in any peptide whose hydrophobicity value has to be calculated. The “average hydrophobicity” of a peptide containing amino acids shown in Table 1 is calculated by determining the arithmetic average of the Table 1 “hydropathy” values for the constituent amino acids of the sequence.
Peptides in accordance with the invention may also include other amino acids. For an amino acid not included in Table 1, the hydrophobicity value may be determined by the same method as described herein for obtaining the values of Table 1. For example, a peptide such as KKAAAXAAAAAXAAXAAXAAAKKKK-amide (Sequence ID No: 1) may be synthesized, where X is the amino acid whose hydrophobicity value is to be determined, and the retention time of the peptide on HPLC is determined, as described in the Examples. Similar peptides where X is Lys or Phe are also prepared and their HPLC retention times determined. The retention time, Rx, is converted to the hydropathy value H for the selected amino acid using the equation
H=(10×ΔtRx-Lys/ΔtRPhe-Lys)−5.00
where ΔtRx-Lys=retention time difference in minutes between Rx and the retention time of the most hydrophilic peptide tested (X=Lys) and where ΔtRPhe-Lys=retention time difference in minutes between the most hydrophobic peptide tested (X=Phe) and the most hydrophilic (X=Lys).
The retention time of each peptide was determined on a C4 reversed-phase column (4.6×250 mm, 300 A pore size, 10 μ particle size). Equal amounts of each peptide were injected into the column and eluted at a flow rate of 1 mL/min, utilizing a linear AB gradient (2% B/min), where buffer A was 0.1% TFA/ddH2O, and buffer B was 0.1% TFA/acetonitrile. The retention time of each peptide reported here was the average of triplicate measurements.

[5] = test system: C498: E. coli, wild type strain; format: cell-based; details: for MIC C498 (active/inactive): Table 2, class symbols; for MIC C498: wild type strain
From the text: as §1, §2, §3

[6] = test system: C500: E. coli, antibiotic strain; format: cell-based; details: for MIC C500 (active/inactive): Table 2, class symbols; for MIC C500: antibiotic strain
From the text: as §1, §2, §3

[7] = test system: E. coli UB1005; format: cell-based, Escherichia coli; details: UB1005
From the text: as §1, §2, §4

Structure (SMILES)	MIC S. epidermidis C621 [1] [µM]	MIC C621 (active/inactive) [1]	MIC C. xerosis C875 [2] [µM]	MIC C875 (active/inactive) [2]	MIC E. coli DC2 [3] [µM]	Mean residue hydropathy of X-residue peptide [4]	Hydropathy [4]	Average Hydrophobicity of Core Sequence [4]	Mean Core segment Hydrophobicity [4]	MIC C498 (active/inactive) [5]	MIC C500 (active/inactive) [6]	MIC E. coli UB1005 [7] [µM]	MIC C621 [1] [µM]	MIC C875 [2] [µM]	MIC C498 [5] [µM]	MIC C500 [6] [µM]
CC(C)C[C@H](NC(=O)[C@H](C)NC(=O)[C@H](C)NC(=O)[C@H](C)NC(=O)[C@H](CCCCN)NC(=O)[C@@H](N)CCCCN)C(=O)N[C@@H](C)C(=O)N[C@@H](C)C(=O)N[C@@H](C)C(=O)N[C@@H](C)C(=O)N[C@@H](C)C(=O)N[C@@H](CS)C(=O)N[C@@H](C)C(=O)N[C@@H](C)C(=O)N[C@@H](Cc1c[nH]c2ccccc12)C(=O)N[C@@H](C)C(=O)N[C@@H](C)C(=O)N[C@@H](CC(C)C)C(=O)N[C@@H](C)C(=O)N[C@@H](C)C(=O)N[C@@H](C)C(=O)N[C@@H](CCCCN)C(=O)N[C@@H](CCCCN)C(=O)N[C@@H](CCCCN)C(=O)N[C@@H](CCCCN)C(N)=O [[C25]] (H-KKAAALAAAAACAAWAALAAAKKKK-NH2; N-terminus assumed)	>32	+	1 (≈ 2.37 µg/mL)	+	8 (≈ 18.9 µg/mL)	0.78	2.49	1.02	1.02	+	+	16 (≈ 37.9 µg/mL)	–	–	–	–
CSCC[C@H](NC(=O)[C@H](C)NC(=O)[C@H](C)NC(=O)[C@H](C)NC(=O)[C@H](CCCCN)NC(=O)[C@@H](N)CCCCN)C(=O)N[C@@H](C)C(=O)N[C@@H](C)C(=O)N[C@@H](C)C(=O)N[C@@H](C)C(=O)N[C@@H](C)C(=O)N[C@@H](CCSC)C(=O)N[C@@H](C)C(=O)N[C@@H](C)C(=O)N[C@@H](Cc1c[nH]c2ccccc12)C(=O)N[C@@H](C)C(=O)N[C@@H](C)C(=O)N[C@@H](CCSC)C(=O)N[C@@H](C)C(=O)N[C@@H](C)C(=O)N[C@@H](C)C(=O)N[C@@H](CCCCN)C(=O)N[C@@H](CCCCN)C(=O)N[C@@H](CCCCN)C(=O)N[C@@H](CCCCN)C(N)=O [[M25]] (H-KKAAAMAAAAAMAAWAAMAAAKKKK-NH2; N-terminus assumed)	16 (≈ 38.9 µg/mL)	+	0.5 (≈ 1.22 µg/mL)	+	32 (≈ 77.8 µg/mL)	0.90	3.23	0.89	0.90	+	+	>32	–	–	–	–
C[C@H](NC(=O)[C@H](C)NC(=O)[C@H](C)NC(=O)[C@H](Cc1ccc(O)cc1)NC(=O)[C@H](C)NC(=O)[C@H](C)NC(=O)[C@H](C)NC(=O)[C@H](CCCCN)NC(=O)[C@@H](N)CCCCN)C(=O)N[C@@H](C)C(=O)N[C@@H](C)C(=O)N[C@@H](Cc1ccc(O)cc1)C(=O)N[C@@H](C)C(=O)N[C@@H](C)C(=O)N[C@@H](Cc1c[nH]c2ccccc12)C(=O)N[C@@H](C)C(=O)N[C@@H](C)C(=O)N[C@@H](Cc1ccc(O)cc1)C(=O)N[C@@H](C)C(=O)N[C@@H](C)C(=O)N[C@@H](C)C(=O)N[C@@H](CCCCN)C(=O)N[C@@H](CCCCN)C(=O)N[C@@H](CCCCN)C(=O)N[C@@H](CCCCN)C(N)=O [Peptide Y25] (H-KKAAAYAAAAAYAAWAAYAAAKKKK-NH2; N-terminus assumed)	8 (≈ 20.2 µg/mL)	–	<0.25	–	16 (≈ 40.4 µg/mL)	0.71	2.00	0.71	0.71	–	–	32 (≈ 80.9 µg/mL)	3 (≈ 7.58 µg/mL)	0.2 (≈ 0.506 µg/mL)	11 (≈ 27.8 µg/mL)	5 (≈ 12.6 µg/mL)
CC(C)C[C@H](NC(=O)[C@H](C)NC(=O)[C@H](C)NC(=O)[C@H](C)NC(=O)[C@H](CCCCN)NC(=O)[C@@H](N)CCCCN)C(=O)N[C@@H](C)C(=O)N[C@@H](C)C(=O)N[C@@H](C)C(=O)N[C@@H](C)C(=O)N[C@@H](C)C(=O)N[C@@H](CC(C)C)C(=O)N[C@@H](C)C(=O)N[C@@H](C)C(=O)N[C@@H](Cc1c[nH]c2ccccc12)C(=O)N[C@@H](C)C(=O)N[C@@H](C)C(=O)N[C@@H](CC(C)C)C(=O)N[C@@H](C)C(=O)N[C@@H](C)C(=O)N[C@@H](C)C(=O)N[C@@H](CCCCN)C(=O)N[C@@H](CCCCN)C(=O)N[C@@H](CCCCN)C(=O)N[C@@H](CCCCN)C(N)=O [Peptide L25] (H-KKAAALAAAAALAAWAALAAAKKKK-NH2; N-terminus assumed)	2 (≈ 4.76 µg/mL)	–	<0.25	–	16 (≈ 38 µg/mL)	1.14	4.76	1.14	1.14	–	–	32 (≈ 76.1 µg/mL)	1.5 (≈ 3.57 µg/mL)	0.2 (≈ 0.476 µg/mL)	6 (≈ 14.3 µg/mL)	6 (≈ 14.3 µg/mL)
